Patent US9738634B2, “Heterocyclic amide compound and herbicide” (SYNGENTA PARTICIPATIONS AG, priority 2013, dated 2017)

Columns and labels:
Type in all cases: in vivo
[1] = tested on: wild oat; assay: Test Example 3: weedkilling efficacy through soil treatment; G: wild oat; conditions: soil treatment, treatment dosage 320 g/ha
Method in brief: (§1)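 Crop and weed responses were judged three weeks after a uniform surface spray of the water-diluted emulsion at the given g/ha rate. Seeds sat beneath about 1.5 cm of sterilized diluvial soil, and boxes stood in a greenhouse at 25 to 30° C.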

[2] = tested on: barnyard grass; assay: Test Example 2: weedkilling efficacy, growth period weed treatment in the submerged state; A: barnyard grass; conditions: treatment dosage 320 g/ha
Method in brief: (§2)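 Seedlings at 1-2 leaves in 4 cm-deep submerged alluvial soil received emulsion formulations on the water surface, dosed per hectare; effects were judged 3 weeks on.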

[3] = tested on: barnyard grass; assay: Test Example 3: weedkilling efficacy through soil treatment; F: barnyard grass; conditions: soil treatment, treatment dosage 320 g/ha
Method in brief: as §1

[4] = tested on: Italian ryegrass; assay: Test Example 3: weedkilling efficacy through soil treatment; I: Italian ryegrass; conditions: soil treatment, treatment dosage 320 g/ha
Method in brief: as §1

[5] = tested on: oval-leafed pondweed; assay: Test Example 1: weedkilling efficacy, preemergent weed treatment in the submerged state; C: oval-leafed pondweed; conditions: treatment dosage 320 g/ha
Method in brief: (§3)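 Submerged pre-emergence treatment, water-surface application of compound emulsion at g/ha dosages; 4 cm flooded alluvial soil, weeds sown and 2.5-leaf rice transplanted same day. Rated after 3 weeks, greenhouse.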

[6] = tested on: directly sown rice; assay: Test Example 3: soil treatment, effect on crop; b: directly sown rice; conditions: soil treatment, treatment dosage 320 g/ha
Method in brief: as §1

[7] = tested on: common wind-grass; assay: Test Example 3: weedkilling efficacy through soil treatment; J: common wind-grass; conditions: soil treatment, treatment dosage 320 g/ha
Method in brief: as §1

[8] = tested on: catchweed; assay: Test Example 3: weedkilling efficacy through soil treatment; O: catchweed; conditions: soil treatment, treatment dosage 320 g/ha
Method in brief: as §1

[9] = tested on: fig-leafed goosefoot; assay: Test Example 3: weedkilling efficacy through soil treatment; M: fig-leafed goosefoot; conditions: soil treatment, treatment dosage 320 g/ha
Method in brief: as §1

[10] = tested on: bulrush; assay: Test Example 1: weedkilling efficacy, preemergent weed treatment in the submerged state; B: bulrush; conditions: treatment dosage 320 g/ha
Method in brief: as §3

[11] = tested on: barnyard grass; assay: Test Example 1: weedkilling efficacy, preemergent weed treatment in the submerged state; A: barnyard grass; conditions: treatment dosage 320 g/ha
Method in brief: as §3

[12] = tested on: rapeseed; assay: Test Example 3: soil treatment, effect on crop; g: rapeseed; conditions: soil treatment, treatment dosage 320 g/ha
Method in brief: as §1

[13] = tested on: birds-eye speedwell; assay: Test Example 3: weedkilling efficacy through soil treatment; p: birds-eye speedwell; conditions: soil treatment, treatment dosage 320 g/ha
Method in brief: as §1

[14] = tested on: wheat; assay: Test Example 3: soil treatment, effect on crop; e: wheat; conditions: soil treatment, treatment dosage 320 g/ha
Method in brief: as §1

[15] = tested on: crabgrass; assay: Test Example 3: weedkilling efficacy through soil treatment; D: crabgrass; conditions: soil treatment, treatment dosage 320 g/ha
Method in brief: as §1

[16] = tested on: soybean; assay: Test Example 3: soil treatment, effect on crop; d: soybean; conditions: soil treatment, treatment dosage 320 g/ha
Method in brief: as §1

[17] = tested on: beet; assay: Test Example 3: soil treatment, effect on crop; f: beet; conditions: soil treatment, treatment dosage 320 g/ha
Method in brief: as §1

[18] = tested on: oval-leafed pondweed; assay: Test Example 2: weedkilling efficacy, growth period weed treatment in the submerged state; C: oval-leafed pondweed; conditions: treatment dosage 320 g/ha
Method in brief: as §2

[19] = tested on: black-grass; assay: Test Example 3: weedkilling efficacy through soil treatment; H: black-grass; conditions: soil treatment, treatment dosage 320 g/ha
Method in brief: as §1

[20] = tested on: Indian mallow; assay: Test Example 3: weedkilling efficacy through soil treatment; K: Indian mallow; conditions: soil treatment, treatment dosage 320 g/ha
Method in brief: as §1

[21] = tested on: green foxtail; assay: Test Example 3: weedkilling efficacy through soil treatment; E: green foxtail; conditions: soil treatment, treatment dosage 320 g/ha
Method in brief: as §1

[22] = tested on: chickweed; assay: Test Example 3: weedkilling efficacy through soil treatment; N: chickweed; conditions: soil treatment, treatment dosage 320 g/ha
Method in brief: as §1

[23] = tested on: corn; assay: Test Example 3: soil treatment, effect on crop; c: corn; conditions: soil treatment, treatment dosage 320 g/ha
Method in brief: as §1

[24] = tested on: redroot pigweed; assay: Test Example 3: weedkilling efficacy through soil treatment; L: redroot pigweed; conditions: soil treatment, treatment dosage 320 g/ha
Method in brief: as §1

[25] = tested on: bulrush; assay: Test Example 2: weedkilling efficacy, growth period weed treatment in the submerged state; B: bulrush; conditions: treatment dosage 320 g/ha
Method in brief: as §2

[26] = tested on: transplanted rice; assay: Test Example 1: preemergent weed treatment in the submerged state, effect on crop; a: transplanted rice; conditions: treatment dosage 320 g/ha
Method in brief: as §3

With `CC(C)(C(=O)Nc1ccn(C(F)F)n1)N1COCN(c2ccccc2)C1=O` [A-1-04] as the molecule, how does the “G: wild oat, weedkilling efficacy grade” value [1] read?
The value was 2 (weed kill ratio 20% or more, less than 40%).

What about the “A (barnyard grass) weedkilling efficacy grade” value [2] of the same molecule?
Its value is 3 (weed kill ratio 40% or more, less than 70%).

What about the “F: barnyard grass, weedkilling efficacy grade” value [3] of the same molecule?
The value was 2 (weed kill ratio 20% or more, less than 40%).

And the “I: Italian ryegrass, weedkilling efficacy grade” value [4]?
The value was 5 (weed kill ratio 90% or more, (practically complete withering)).

What about the “C: oval-leafed pondweed, weed kill grade” value [5] of the same molecule?
Its value is 4 (weed kill ratio 70% or more, less than 90%).

And the “b: directly sown rice, effect on crop grade” value [6]?
The value was 0 (weed kill ratio 5% or less (practically no effect)).

What about the “J: common wind-grass, weedkilling efficacy grade” value [7] of the same molecule?
Its value is 5 (weed kill ratio 90% or more, (practically complete withering)).

And the “O: catchweed, weedkilling efficacy grade” value [8]?
Its value is 2 (weed kill ratio 20% or more, less than 40%).

What about the “M: fig-leafed goosefoot, weedkilling efficacy grade” value [9] of the same molecule?
Its value is 3 (weed kill ratio 40% or more, less than 70%).

And the “B: bulrush, weed kill grade” value [10]?
Its value is 5 (weed kill ratio 90% or more, (practically complete withering)).

What about the “A: barnyard grass, weed kill grade” value [11] of the same molecule?
The value was 5 (weed kill ratio 90% or more, (practically complete withering)).

What about the “g: rapeseed, effect on crop grade” value [12] of the same molecule?
Its value is 4 (weed kill ratio 70% or more, less than 90%).

What about the “P: birds-eye speedwell, weedkilling efficacy grade” value [13] of the same molecule?
The value was 3 (weed kill ratio 40% or more, less than 70%).

And the “e: wheat, effect on crop grade” value [14]?
The value was 0 (weed kill ratio 5% or less (practically no effect)).

What about the “D: crabgrass, weedkilling efficacy grade” value [15] of the same molecule?
The value was 3 (weed kill ratio 40% or more, less than 70%).

What about the “d: soybean, effect on crop grade” value [16] of the same molecule?
Its value is 2 (weed kill ratio 20% or more, less than 40%).

And the “f: beet, effect on crop grade” value [17]?
The value was 3 (weed kill ratio 40% or more, less than 70%).

What about the “C (oval-leafed pondweed) weedkilling efficacy grade” value [18] of the same molecule?
The value was 4 (weed kill ratio 70% or more, less than 90%).

And the “H: black-grass, weedkilling efficacy grade” value [19]?
Its value is 4 (weed kill ratio 70% or more, less than 90%).

And the “K: Indian mallow, weedkilling efficacy grade” value [20]?
The value was 0 (weed kill ratio 5% or less (practically no effect)).

And the “E: green foxtail, weedkilling efficacy grade” value [21]?
Its value is 3 (weed kill ratio 40% or more, less than 70%).

What about the “N: chickweed, weedkilling efficacy grade” value [22] of the same molecule?
Its value is 4 (weed kill ratio 70% or more, less than 90%).

What about the “c: corn, effect on crop grade” value [23] of the same molecule?
The value was 0 (weed kill ratio 5% or less (practically no effect)).

What about the “L: redroot pigweed, weedkilling efficacy grade” value [24] of the same molecule?
Its value is 0 (weed kill ratio 5% or less (practically no effect)).

What about the “B (bulrush) weedkilling efficacy grade” value [25] of the same molecule?
Its value is 4 (weed kill ratio 70% or more, less than 90%).

And the “a: transplanted rice, effect on crop grade” value [26]?
The value was 0 (weed kill ratio 5% or less (practically no effect)).
